{
  "source": "patent US10093712B2",
  "about": "“Immunostimulatory compositions and uses thereof” (Susavion Biosciences, Inc., priority 2004, dated 2018)",
  "key": {"[1]": {"system": "adherent peripheral blood cells", "test": "Oxidative burst of adherent peripheral blood cells, change in absorbance of cytochrome c after PMA", "type": "cell-based", "experimental": "FIG. 7. Response of adherent peripheral blood cells to mimetic peptides. Reduction of cytochrome c by superoxide anion radical is indicated by an increase in absorbance (OD), whereas a loss of absorbance indicates destruction of the cytochrome. (A) Total adherent cells from 300 μl of blood were assayed. Samples 1 and 2 contained 5 nM and 2.5 nM branched mimetic peptide, respectively. Samples 3 and 4 contained 5 nM and 2.5 nM linear mimetic peptide, respectively. Sample 5 contained 50 ng/ml lipopolysaccharide (weight equivalent to 6 nM peptide). Sample 6, untreated control cells. (B) Adherent cells were scraped from the surface and 1×10^5 cells were placed in each well. The assay was performed as in (A). Samples 1 and 2 contained 10 nM and 5 nM mimetic peptide, respectively. Samples 3 and 4 contained 10 nM and 5 nM linear peptide, respectively. Sample 5 contained 50 ng/ml lipopolysaccharide. Sample 6, untreated control cells.\n(§1) Oxidative burst: Peripheral blood samples were removed from animals and 300 μl added to wells of a 96-well microtiter plate and incubated overnight at 38° C. in a standard CO2-incubator. The nonadherent cells, including erythrocytes, and serum were removed and centrifuged to pellet cells and obtain cell-free serum. RPMI 1640 medium containing 2 to 10% serum from the same animal were added to each well and incubation of the culture is continued for various periods of time. The polypeptide mimetic was then added to a concentration of 1 to 10 nM and incubation continued for 3 h.\nOne type of assay of cellular activity measures the response of adherent cells to the polypeptide mimetic by the change in absorbance of cytochrome c (Johnston et al., 1978; Pick and Mizel, 1981). Phorbol 12-myristate 13-acetate (PMA) was added to 140 nM and then cytochrome c was added to 15 μM. Change in absorbance was monitored continuously at 550 nm over 20 min. With 300 μl in each well, reduction of cytochrome c was calculated as: Δnanomoles=absorbance at 550 nm×100/2.1 (Pick and Mizel, 1981). Positive control samples were run with lipopolysaccharide, a known stimulator of macrophage activity. Negative controls lack stimulant.\nThe oxidative burst upon addition of PMA involves production of the superoxide anion radical. The superoxide anion radical is a strong reducing agent and reduces cytochrome c, which is detected by an increase in absorbance of the sample. Additionally, these cells produce the nitric oxide radical, which reacts with superoxide anion radical at diffusion-limited rates to produce the strong oxidant, peroxynitrite anion (Ischiropoulos et al., 1992). These strong oxidants apparently cause loss of absorbance of the cytochrome.\nWithout treatment with the polypeptide, again no change in absorbance of the cytochrome was detected."}, "[2]": {"system": "peripheral blood adherent cells", "test": "Pyrogallol oxidation initiated by superoxide anion radical from peripheral blood adherent cells", "type": "cell-based", "settings": "3.4, 1.7 or 0.7 nM versus 50 ng/ml lipopolysaccharide, FIG. 8", "experimental": "FIG. 8. Assay of pyrogallol oxidation initiated by superoxide anion radical generation by peripheral blood adherent cells treated with stimulants. Samples 1, 2, and 3, contained 3.4, 1.7 or 0.7 nM (25, 12.5 or 5 ng/ml) of the branched mimetic, respectively. Sample 4 contained 50 ng/ml lipopolysaccharide. Sample 5, untreated control cells.\nas §1\nThe response of cells to the polypeptide was also assayed by oxidation of pyrogallol (Marldund and Marklund, 1974) in a reaction initiated by superoxide anion radical (FIG. 8)."}, "[3]": {"system": "canine peripheral blood macrophages", "test": "Phagocytosis of fluorescently labeled bacterial cells, trypan blue quench, microscopy", "type": "cell-based", "settings": "for phagocytosis of bacterial cells: then bacterial cells 10 minutes", "experimental": "FIG. 9. Microscopic analysis of phagocytosis of fluorescently labeled bacterial cells by adherent cells from canine peripheral blood samples. […] The sample was treated 15 h with 5 nM branched peptide mimetic and then incubated with fluorescently-labeled bacterial cells for 10 min. Fluorescence of bacterial cells that remained extracellular was quenched with trypan blue. […] The samples were not treated with the peptide mimetic, and most of the cells, as in (D) were not fluorescent. A very low level of fluorescence, evidence of low phagocytic activity, was occasionally seen, as shown in (C). Gain was set to maximize detection of fluorescence. Such control samples show the highest level of phagocytosis of bacterial that we have observed. In many experiments, control cells show no fluorescence.\n(§2) Phagocytosis: Phagocytosis was measured by the uptake of fluorescently-labeled bacterial cells (Molecular Probes, Inc.) or fluorescent polystyrene beads (Polyscience, Inc). Phagocytosis can be quantitated by quenching extracellular (unphagocytized) bacterial cells by addition of the dye trypan blue to the suspension and measuring the remaining (intracellular) fluorescence (Wan et al., 1993).\nIn one experiment, canine peripheral blood macrophages were treated for 15 hours with 5 nM branched polypeptide (FIG. 4), and then incubated with bacterial cells for 10 minutes, followed by microscopic analysis. Fluorescence of bacterial cells that remained extracellular was quenched with trypan blue. […] (See FIG. 9)\nIn another experiment, adherent canine peripheral blood cells were treated for 5 hours with 10 nM branched polypeptide (FIG. 4) and then washed. Fluorescent bacterial cells were added, and after 10 minutes, trypan blue was added to quench extracellular bacterial cells. Cells were examined by light microscopy and then by fluorescent microscopy. Contrast in the fluorescent images was maximized to detect any fluorescence in control samples. […] Treated and control samples were from the same dog."}, "[4]": {"system": "adherent macrophages or neutrophils from canine peripheral blood", "test": "Phagocytosis of fluorescent polystyrene beads", "type": "cell-based", "settings": "3.4 nM (25 ng/ml)", "experimental": "as §2\nPhagocytosis of polystyrene beads: Peripheral blood from the canines was added to confocal dishes and incubated over night to allow macrophage adherence. The cells were washed away with PBS, HBSS, or RPMI. Only adherent macrophages or neutrophils remained on the glass surface and were left to incubate in the above mentioned buffers. Polypeptide was then added at 3.4 nM (25 ng/ml) for a 5-hour incubation. At this point, beads were added for a 10-minute incubation. All incubations were done in 37° C. with 5% CO2."}, "[5]": {"system": "recurring, advanced cancer", "settings": "for quality of life: canine cancer patients, subjective; for tumor load / size of the primary tumor: several patients / some cases", "experimental": "Owners of dogs that were used to obtain preliminary data were required to sign informed consent and agreement to necropsy forms. Dogs with histologically or cytologically confirmed cancer were given the polypeptide mimetic at doses of 100 to 1,500µg by weekly perfusion into the blood or subcutaneously 3 times per week. The effective dose of the glycopeptide used by Schneider et al. (2003) was 0.4 ng/g body weight given every other day. On this basis, a minimal weekly dose should be 1.4 ng/g body weight. For a large animal (80 lb or 36 kg dog), the starting, minimal-effective, weekly dose of the synthetic mimetic polypeptide would therefore be 50µg or 6.8 nmoles. For initial studies, the mimetic polypeptide (FIG. 4) was administered at a 20-fold higher dose."}, "[6]": {"settings": "pH 7.4", "text": "The product was dried and then dissolved in sterile phosphate buffered saline, pH 7.4."}},
  "note": "Where two headings read alike, the source gives them in different places. Where no end group is shown, it is not given here.",
  "data": [
    {"substance": "[(VQATQSNQHTPRGGGS)2K]2K.beta.AC (not fully specified (C-terminus); printed as [(VQATQSNQHTPRGGGS)2K]2K.beta.AC; also: four-branch lysine core [(seq)2K]2K, betaAla-Cys on core) [branched polypeptide mimetic]", "values": [
      {"measurement": "oxidative burst response compared with linear polypeptide", "setting": "[1]; FIG. 7", "result": "stronger response than the linear polypeptide"},
      {"measurement": "change in absorbance of cytochrome c", "setting": "[1]; higher concentrations of polypeptide (5 to 10 nM), FIG. 7A", "result": "rapid loss of absorbance"},
      {"measurement": "change in absorbance of cytochrome c", "setting": "[1]; low concentrations of mimetic polypeptide (1 nM), PMA 140 nM, cytochrome c 15 μM, 550 nm", "result": "increase in absorbance of cytochrome c"},
      {"measurement": "rate of reduction of cytochrome c", "setting": "[1]; lowered cell number (1×10^5 cells per well), FIG. 7B", "result": "correlated with the amount of polypeptide mimetic added"},
      {"measurement": "oxidative burst response compared with lipopolysaccharide", "setting": "[1]; on an equal weight basis", "result": "even stronger than to lipopolysaccharide"},
      {"measurement": "oxidation of pyrogallol, activity as stimulant", "setting": "[2]", "result": "most active stimulant"},
      {"measurement": "phagocytosis of bacterial cells", "setting": "[3]; 5 nM for 15 hours", "result": "dramatically increased phagocytosis"},
      {"measurement": "attachment of neutrophils", "setting": "[3]; 10 nM for 5 hours", "result": "more of the smaller neutrophils become attached"},
      {"measurement": "phagocytosis of bacterial cells", "setting": "[3]; 10 nM for 5 hours", "result": "dramatically increased phagocytosis"},
      {"measurement": "detachment of neutrophils from the surface", "setting": "[4]", "result": "induced detachment of neutrophils from the surface"},
      {"measurement": "phagocytosis of polystyrene beads", "setting": "[4]; 5-hour incubation, 10 to 30 minutes after bead addition", "result": "presence of the beads within cells"},
      {"measurement": "quality of life", "setting": "[5]; listed as branched peptide mimetic", "result": "dramatic improvement in quality of life"},
      {"measurement": "quality of life", "setting": "[5]; listed as polypeptide", "result": "remarkable extension and improvement in the quality of life"},
      {"measurement": "quality of life", "setting": "[5]; listed as polypeptide mimetic", "result": "dramatically enhanced"},
      {"measurement": "survival on the treatment", "setting": "[5]; several animals, advanced cancer", "result": "≥ 6", "unit": "months"},
      {"measurement": "extension of life", "setting": "[5]; several canine patients with advanced cancer", "result": "extension of life beyond what would be normally expected"},
      {"measurement": "behavior", "setting": "[5]; several patients", "result": "restored to pre-disease activities"},
      {"measurement": "tumor load / size of the primary tumor", "setting": "[5]; listed as polypeptide", "result": "reduction in size of the primary tumor"},
      {"measurement": "tumor load / size of the primary tumor", "setting": "[5]; listed as polypeptide mimetic", "result": "reduction in tumor load was detected"},
      {"measurement": "stability of the product", "setting": "[6]", "result": "at least 3 months"}
    ]},
    {"substance": "lipopolysaccharide [reference compound]", "values": [
      {"measurement": "change in absorbance of cytochrome c", "setting": "[1]; lipopolysaccharide positive control", "result": "increase in absorbance of cytochrome c"}
    ]}
  ]
}
